{
  "source": "patent US10376520B2",
  "about": "“Methods for the treatment of cardiovascular disorders” (Galapagos NV, priority 2015, dated 2019)",
  "key": {"[1]": {"tested_on": "Japanese and Caucasian healthy subjects", "assay": "Total cholesterol determination, Study 3 (healthy volunteers)", "assay_type": "in vivo, human", "conditions": "for [Total cholesterol] % Mean % variation vs baseline 10 days: 200 mg q.d.; for [Total cholesterol] levels: Study 3", "procedure": "Randomized, double-blind, placebo-controlled study for the assessment of safety, tolerability, pharmacokinetics, and pharmacodynamics, of multiple oral doses of Compound 1 (dosed as a [Compound 1:HCl:3H2O]) in Japanese and Caucasian healthy subjects.\nRandomized, double-blind, placebo-controlled, single center, sequential design study.\nCompound 1 (dosed as a [Compound 1:HCl:3H2O]) is administered for 10 days as oral film-coated tablet (25 and 100 mg and matching placebos). Placebo are provided as a matching tablet.\nThe study drug is ingested with 240 mL water after a standardized breakfast on Days 2-9. On PK days (Day 1 and Day 10) the study drug is administered in a fasted state (subjects will receive lunch 4 h after dosing on Day 1 and Day 10).\n10 Japanese subjects (6 active, 4 placebo) and 10 Caucasian subjects (6 active, 4 placebo) will receive once daily an oral dose of 200 mg Compound 1 (dosed as a [Compound 1:HCl:3H2O]) or matching placebo as two tablets of 100 mg or matching placebo for 10 days. For practical reasons, these subjects may be split over separate groups, each group consisting of an equal number of Japanese and Caucasian Compound 1 (dosed as a [Compound 1:HCl:3H2O]) treated subjects and Japanese and Caucasian placebo subjects.\nThis method is based on the determination of Δ^4 cholestenone after enzymatic cleavage of the cholesterol ester by cholesterol esterase, conversion of cholesterol by cholesterol oxidase, and subsequent measurement by the Trinder reaction of the hydrogen peroxide formed (Allain et al., 1974).\nCholesterol esters are cleaved by the action of cholesterol esterase to yield free cholesterol and fatty acids. Cholesterol oxidase then catalyzes the oxidation of cholesterol to cholest-4-en-3-one and hydrogen peroxide. In the presence of peroxidase, the hydrogen peroxide formed effects the oxidative coupling of phenol and 4-aminophenazone to form a red quinone-imine dye. The color intensity of the dye formed is directly proportional to the cholesterol concentration. It is determined by measuring the increase in absorbance.\nHuman serum and plasma samples cholesterol determination was done on a Roche/Hitachi Cobas c 701/702 system which automatically calculate the analyte concentration of each sample."}, "RA patients": {"tested_on": "RA patients", "assay": "Disease Activity Score 28 (DAS28(CRP)), Study 2", "assay_type": "in vivo, human", "from_the_text": "As used herein, the term ‘DAS28(CRP)’ refers to a clinical scoring ranging from 2.0 to 10.0 to measure the disease status at a given point in time, and thereby follow the progress and improvement of rheumatoid arthritis in a patient, and includes a 28 tender and swollen joint count, CRP measurement from blood analysis, and a general health assessment on a visual analog scale. A DAS28(CRP) value below 2.6 is indicative of remission, A DAS28(CRP) between 2.6 and 3.2 is indicative of low disease activity, between 3.2 and 5.1 is indicative of moderate disease activity, whereas a DAS28(CRP) above 5.1 is linked to high disease activity. (Wells et al., 2008)\nDouble-blind, placebo-controlled, monotherapy study in subjects with moderately to severely active RA who have an inadequate response to methotrexate (MTX) (oral or parenteral).\nTwelve weeks of treatment with Compound 1 (dosed as a [Compound 1:HCl:3H2O]) at 50 mg, 100 mg, or 200 mg q.d.; or placebo. At Week 12, all subjects on placebo and the subjects on the 50 mg dose who have not achieved 20% improvement in swollen joint count (SJC66) and tender joint count (TJC68) will be assigned to 100 mg q.d. in a blinded fashion and will continue treatment until Week 24. Subjects in the other groups will maintain their randomized treatment until Week 24.\nThe (DAS28(CRP)) is a system developed and validated by the European League Against Rheumatism (EULAR) to measure the progress and improvement of rheumatoid arthritis and has been extensively validated (Wells et al., 2008). The DAS28(CRP) scoring includes a 28 tender and swollen joint count, CRP measurement from blood analysis, and a general health assessment on a visual analog scale (Fransen et al., 2003).\nDAS28(CRP) values range from 2.0 to 10.0, and more particularly reflect the following status: • Remission: DAS28(CRP)≤2.6 • Low Disease activity: 2.6<DAS28(CRP)≤3.2 • Moderate Disease Activity: 3.2<DAS28(CRP)≤5.1 • High Disease Activity: DAS28(CRP)>5.1\nIn practice, the DAS28(CRP) measurement involves the evaluation 28 different joints including in the measurement (proximal interphalangeal joints (10 joints), metacarpophalangeal joints (10), wrists (2), elbows (2), shoulders (2), and knees (2)). When looking at these joints, both the number of joints with tenderness upon touching and swelling are counted.\nFirstly, the patient is asked to make a vertical mark on a 100 mm Visual Analog Scale (VAS) corresponding to their general health or global disease activity. Using an electronic touchscreen, the mark is measured from the left-hand side in mm to obtain the VAS value, which is used in the formula below.\nSecondly, a swollen and tender joint examination is then performed on the patient. The swollen and tender joints are recorded. From this examination are obtained the total amount of swollen joints (SJC) and the total amount of tender joints (TJC), which are used in the formula below.\nThirdly, C-reactive protein (CRP) levels (in mg/dL) are measured.\nFinally, the values obtained above (VAS, JTC28, SJC28, and CRP) are computed into the following Formula to obtain the DAS28(CRP) score.\nThe number of subjects (N) provided in each groups corresponds to the number of patients starting the study in each group, and the DAS28 (CRP) data reported below corresponds to the responding patients continuing for the entire 24 weeks on their initial treatment course."}},
  "data": [
    {"molecule": "O=C(Nc1nc2cccc(-c3ccc(CN4CCS(=O)(=O)CC4)cc3)n2n1)C1CC1", "note": "[Compound 1, cyclopropanecarboxylic acid {5-[4-(1,1-dioxo-thiomorpholin-4-ylmethyl)-phenyl]-[1,2,4]triazolo[1,5-a]pyridin-2yl}-amide]", "values": [
      {"measurement": "[Total cholesterol] % Mean % variation vs baseline 10 days", "setting": "[1]; Caucasian", "value": "−2.6", "unit": "%"},
      {"measurement": "[Total cholesterol] % Mean % variation vs baseline 10 days", "setting": "[1]; Japanese", "value": "−0.4", "unit": "%"},
      {"measurement": "[Total cholesterol] levels", "setting": "[1]; Caucasian 200 mg q.d. for 10 days, day 17", "value": 4.57, "unit": "mmol/L"},
      {"measurement": "[Total cholesterol] levels", "setting": "[1]; Caucasian 200 mg q.d., day 0", "value": 4.77, "unit": "mmol/L"},
      {"measurement": "[Total cholesterol] levels", "setting": "[1]; Caucasian 200 mg q.d., day 5", "value": 4.5, "unit": "mmol/L"},
      {"measurement": "[Total cholesterol] levels", "setting": "[1]; Caucasian 200 mg q.d., day 10", "value": 4.53, "unit": "mmol/L"},
      {"measurement": "[Total cholesterol] levels", "setting": "[1]; Japanese 200 mg q.d. for 10 days, day 17", "value": 4.52, "unit": "mmol/L"},
      {"measurement": "[Total cholesterol] levels", "setting": "[1]; Japanese 200 mg q.d., day 0", "value": 4.47, "unit": "mmol/L"},
      {"measurement": "[Total cholesterol] levels", "setting": "[1]; Japanese 200 mg q.d., day 5", "value": 4.18, "unit": "mmol/L"},
      {"measurement": "[Total cholesterol] levels", "setting": "[1]; Japanese 200 mg q.d., day 10", "value": 4.45, "unit": "mmol/L"},
      {"measurement": "DAS28(CRP) mean CFB (LOCF) - over 24 weeks", "setting": "RA patients; 50 mg q.d., Week 16", "value": "−1.88"},
      {"measurement": "DAS28(CRP) mean CFB (LOCF) - over 12 weeks", "setting": "RA patients; 50 mg q.d., week 1", "value": "−0.70"},
      {"measurement": "DAS28(CRP) mean CFB (LOCF) - over 24 weeks", "setting": "RA patients; 50 mg q.d., week 1", "value": "−0.75"},
      {"measurement": "DAS28(CRP) mean CFB (LOCF) - over 12 weeks", "setting": "RA patients; 50 mg q.d., week 2", "value": "−0.97"},
      {"measurement": "DAS28(CRP) mean CFB (LOCF) - over 12 weeks", "setting": "RA patients; 50 mg q.d., week 4", "value": "−1.37"},
      {"measurement": "DAS28(CRP) mean CFB (LOCF) - over 24 weeks", "setting": "RA patients; 50 mg q.d., week 12", "value": "−1.75"},
      {"measurement": "% patients reaching low disease activity and/or remission at week 24 (LOCF)", "setting": "RA patients; 100 mg q.d.", "value": 50, "unit": "%"},
      {"measurement": "DAS28(CRP) mean CFB (LOCF) - over 12 weeks", "setting": "RA patients; 100 mg q.d., week 1", "value": "−0.88"},
      {"measurement": "DAS28(CRP) mean CFB (LOCF) - over 24 weeks", "setting": "RA patients; 100 mg q.d., week 1", "value": "−0.87"},
      {"measurement": "DAS28(CRP) mean CFB (LOCF) - over 12 weeks", "setting": "RA patients; 100 mg q.d., week 4", "value": "−1.50"},
      {"measurement": "DAS28(CRP) mean CFB (LOCF) - over 24 weeks", "setting": "RA patients; 100 mg q.d., week 12", "value": "−2.04"},
      {"measurement": "DAS28(CRP) mean CFB (LOCF) - over 24 weeks", "setting": "RA patients; 100 mg q.d., week 16", "value": "−2.39"},
      {"measurement": "DAS28(CRP) mean CFB (LOCF) - over 24 weeks", "setting": "RA patients; 200 mg q.d., week 8", "value": "−2.23"},
      {"measurement": "DAS28(CRP) mean CFB (LOCF) - over 24 weeks", "setting": "RA patients; 200 mg q.d., week 20", "value": "−2.55"}
    ]}
  ]
}
